Measurements taken from patent publication US12473295B2, “Substituted straight chain spiro derivatives” (Janssen Pharmaceutica NV, priority 2019, dated 2025).
Where a name gives a salt, the structure may show the parent alone. Read-outs that look alike come from different tables or passages of the source. Each block holds one compound with its values, some of them ahead of it.

What was measured:
[1] = molecular target: menin/MLL (terbium chelate-labeled menin, FITC-MBM1 peptide) (Homo sapiens (Human), UniProt O00255); assay: Menin/MLL homogenous time-resolved fluorescence (HTRF) assay; type: binding;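 further: IC50 from percent inhibition of HTRF signal, normalized between wells without competitor and wells with a saturating competitor that displaces FITC-MBM1 from His-tagged menin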
Chain of menin/MLL (terbium chelate-labeled menin, FITC-MBM1 peptide) (O00255 other isoform, or with tags, fused parts or gaps): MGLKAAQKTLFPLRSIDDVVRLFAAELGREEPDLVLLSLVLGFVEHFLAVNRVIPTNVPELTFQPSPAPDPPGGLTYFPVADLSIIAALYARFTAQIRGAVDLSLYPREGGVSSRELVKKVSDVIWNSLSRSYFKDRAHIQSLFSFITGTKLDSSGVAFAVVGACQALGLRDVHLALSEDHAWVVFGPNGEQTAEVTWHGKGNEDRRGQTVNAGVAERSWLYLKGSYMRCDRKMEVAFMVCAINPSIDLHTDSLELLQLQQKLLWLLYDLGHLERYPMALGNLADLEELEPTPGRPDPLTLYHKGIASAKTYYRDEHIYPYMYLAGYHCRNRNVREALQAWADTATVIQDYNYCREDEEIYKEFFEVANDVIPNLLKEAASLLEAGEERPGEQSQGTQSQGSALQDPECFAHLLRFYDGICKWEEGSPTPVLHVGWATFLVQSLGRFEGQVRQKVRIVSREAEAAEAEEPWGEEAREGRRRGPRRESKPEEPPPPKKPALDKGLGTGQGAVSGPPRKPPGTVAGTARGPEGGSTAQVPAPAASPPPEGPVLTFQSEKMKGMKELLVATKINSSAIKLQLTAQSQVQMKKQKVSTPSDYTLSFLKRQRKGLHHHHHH

[2] = test system: MOLM14 cells; assay: Proliferation assay (spheroid growth, 8 days), MOLM14; type: cell-based, human; details: MOLM14, 8 days, read-out: spheroid assay_OneTime MOLM14 IC50;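 further: spheroid size read as confluence by live-cell imaging, compounds added at a range of concentrations with 0.3% DMSO, DMSO-treated wells = 0%, highest reference dose = low control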
[3] = test system: OCI-AML3 cells; assay: Proliferation assay (spheroid growth, 8 days), OCI-AML3; type: cell-based, human; details: OCI-AML3, 8 days
Method in brief: (§1)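 Cells were seeded at 200 (MOLM14, OCI-AML3) or 300 (KO-52) per well in ultra-low attachment round-bottom plates with compounds at several concentrations, 0.3% DMSO, and grown 8 days at 37° C. Spheroid confluence was imaged on day 8; IC50 came from a variable-slope fit normalized to DMSO and high-dose reference compound.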

[4] = test system: KO-52 cells; assay: Proliferation assay (spheroid growth, 8 days), KO-52 control cell line; type: cell-based, human; details: read-out: spheroid assay_OneTime KO-52 IC50
Method in brief: as §1

[5] = test system: MEIS1 mRNA; assay: MEIS1 mRNA expression assay (Quantigene Singleplex) in MOLM14 cells; type: cell-based, human; details: 48 hours incubation;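 further: MEIS1 transcript levels read by probe hybridization and normalized to RPL28 mRNA, with IC50 fitted to fold changes across a rising compound concentration series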
[6] = Metabolic stability in human liver microsomes; type: in vitro ADME; details: human liver microsomes 0.5 mg/mL, 1 μM test compound, pH 7.4; for microsomal CLint at 1 μM: read-out: Human LM Clint
Description: (§2) 4) Metabolic Stability in Human/Mouse Liver Microsomes
(§3) The objective of this study is to measure in vitro metabolic stability of test compound(s) in human and mouse liver microsomes and provide quantitative information on the rate of metabolic turnover (i.e. determination of the apparent intrinsic clearance of test).
(§4) Test items were prepared at a stock concentration of 10 mM in DMSO. For determination of metabolic turnover, a final working solution was prepared by adding 2 μL of 10 mM DMSO stock solution for test compound or positive control compounds to 198 μL of acetonitrile (100 μM final concentration).
(§5) Incubations were performed as follows: First, liver microsomes were thawed on ice and a master solution containing liver microsomes in 100 mM PBS (phosphate-buffered saline) at pH 7.4 is prepared. Next, the liver microsomes solution was added to the incubation plates and 10 mM NADPH (Nicotinamide-adenine dinucleotide phosphate) was added (MW: 833.4 g/mol; Roche Diagnostics GmbH, Germany. Dissolved in phosphate buffer (100 mmol/L, pH 7.4)). The mixture was mixed for 10 seconds and pre-warmed in the incubation plate at 37° C. for 10 minutes. The metabolic reaction was initiated with the addition of 5 μL of the 100 μM working solution for test compound or positive control compounds to incubation plate (final test item concentration=1 μM). The reaction final mixture should contain 1 mM NADPH, 0.5 mg/mL microsomes protein and 1 μM test compound or positive control compound in 100 mM PBS at pH 7.4. The percentage of organic solvent in incubation mixture is 1% with DMSO ≤0.02%.
(§6) The reaction was quenched by transferring 50 μL of the incubated mixture at selected time points into the quenching plate containing 200 μL of cold methanol. After sampling of all the timepoints the quenching plate was centrifuged at 4000 rpm for 40 minutes to precipitate protein. A total of 90 μL of the supernatant was transferred to an analysis plate and ultra-pure H2O water is added into each well for LC/MS/MS analysis. All incubations and analysis were performed in duplicate.
(§7) All calculations were carried out using Microsoft Excel. The slope value, k, was determined by linear regression of the natural logarithm of the remaining percentage of the parent drug vs. incubation time curve.
(§8) The in vitro half-life (in vitro tin) was determined from the slope value: in vitro t1/2=−(0.693/k)
(§9) Conversion of the in vitro tin (in min) into the in vitro intrinsic clearance (in vitro CLint, in μL/min/mg proteins) was done using the following equation: […]

[7] = Metabolic stability in mouse liver microsomes; type: in vitro ADME; details: mouse liver microsomes 0.5 mg/mL, 1 μM test compound, pH 7.4; for microsomal CLint at 1 μM: read-out: Mouse LM Clint
Description: as §2, §3, §4, §5, §6, §7, §8, §9

[8] = molecular target: hERG potassium channel (Homo sapiens (Human), UniProt Q12809); assay: Effect on membrane potassium current IKr in hERG transfected CHO cells, Protocol 1 (QPatch); type: cell-based
Chain of hERG potassium channel (Q12809 whole entry): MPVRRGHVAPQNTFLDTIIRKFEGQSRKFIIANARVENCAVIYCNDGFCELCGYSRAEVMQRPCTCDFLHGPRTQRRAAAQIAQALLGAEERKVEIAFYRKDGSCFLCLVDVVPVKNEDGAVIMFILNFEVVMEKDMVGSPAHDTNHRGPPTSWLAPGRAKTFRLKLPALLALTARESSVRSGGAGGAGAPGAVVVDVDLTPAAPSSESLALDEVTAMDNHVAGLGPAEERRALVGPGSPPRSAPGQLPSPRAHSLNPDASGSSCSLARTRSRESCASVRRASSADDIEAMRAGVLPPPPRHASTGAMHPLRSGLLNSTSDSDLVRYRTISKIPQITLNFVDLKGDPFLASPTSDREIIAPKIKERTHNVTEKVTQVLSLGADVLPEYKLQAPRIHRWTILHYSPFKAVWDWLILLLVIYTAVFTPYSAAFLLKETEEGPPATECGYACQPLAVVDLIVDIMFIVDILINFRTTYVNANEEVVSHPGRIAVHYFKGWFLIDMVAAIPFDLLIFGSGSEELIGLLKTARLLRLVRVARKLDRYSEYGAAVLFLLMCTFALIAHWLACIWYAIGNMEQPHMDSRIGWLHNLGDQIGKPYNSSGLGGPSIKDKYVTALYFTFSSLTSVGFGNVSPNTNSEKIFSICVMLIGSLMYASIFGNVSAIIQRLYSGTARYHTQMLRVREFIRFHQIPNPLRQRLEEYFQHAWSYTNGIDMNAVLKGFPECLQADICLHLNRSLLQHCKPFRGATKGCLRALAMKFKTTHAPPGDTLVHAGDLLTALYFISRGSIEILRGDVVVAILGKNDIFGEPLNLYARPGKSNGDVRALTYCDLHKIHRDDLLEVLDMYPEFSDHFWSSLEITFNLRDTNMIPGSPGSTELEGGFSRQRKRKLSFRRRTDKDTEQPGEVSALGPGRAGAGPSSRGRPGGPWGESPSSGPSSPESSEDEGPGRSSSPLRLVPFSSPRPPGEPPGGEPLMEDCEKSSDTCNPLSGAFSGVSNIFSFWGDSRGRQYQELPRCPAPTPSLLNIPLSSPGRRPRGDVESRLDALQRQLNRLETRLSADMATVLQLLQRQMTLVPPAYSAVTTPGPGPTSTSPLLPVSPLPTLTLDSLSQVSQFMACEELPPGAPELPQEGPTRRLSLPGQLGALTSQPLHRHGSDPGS
Description: 8) Effect on the Membrane Potassium Current IKr in hERG Transfected Cell Lines
• CHO Chinese hamster ovary cell line • DMSO Dimethylsulfoxide • hERG human ether-á-go-go-related gene • IKr rapidly activating delayed-rectifier K^+ current Methods
Experiments were performed using CHO cells stably expressing the hERG potassium channel. Cells were grown at 37° C. and 5% CO2 in culture flasks in Ham's F12 Medium supplemented with 10% heat-inactivated fetal calf serum, hygromycin B (100 μg/ml) and geneticin (100 μg/ml). For use in the automated patch-clamp system QPatch (Sophion) cells were harvested to obtain cell suspension of single cells.
Solutions: The bath solution contained (in mM) 145 NaCl, 4 KCl, 10 glucose, 10 HEPES ((4-(2-hydroxyethyl)-1-piperazineethanesulfonic acid), 2 CaCl2 and 1 MgCl2 (pH 7.4 with NaOH). The pipette solution contained (in mM) 120 KCl, 10 EGTA (Ethylene glycol-bis(2-aminoethylether)-N,N,N′,N′-tetraacetic acid), 10 HEPES, 5.374 CaCl2 and 1.75 MgCl2 (pH 7.2 with KOH).
Patch-clamp experiments were performed in the voltage-clamp mode and whole-cell currents were recorded with an automated patch-clamp assay utilizing the QPatch system (Sophion). Current signals were amplified and digitized, stored and analyzed by using the QPatch assay software.
The holding potential was −80 mV. The hERG current (K^+-selective outward current) was determined as the maximal tail current at −40 mV after a 2 second depolarization to +60 mV. Pulse cycling rate was 15 s. A short pulse (90 ms) to −40 mV served as a baseline step to calculate the tail current amplitude. After establishing whole-cell configuration and a stability period, the solvent control (0.3% DMSO) was applied for 5 minutes followed by the test substance by four increasing concentrations of 3×10^−7 M, 3×10^−6 M, 10^−5 M and 3×10^−5 M. Each concentration of the test substance was applied twice. The effect of each concentration was determined after 5 min as an average current of 3 sequential voltage pulses. To determine the extent of block the residual current was compared with vehicle pre-treatment.
Concentration/response relations were calculated by non-linear least-squares fits to the individual data points. The half-maximal inhibiting concentration (IC50) was calculated by the fitting routine.

[9] = Mouse PK (in vivo T1/2 and oral bioavailability); details: fasted male CD-1 mice, formulating agent HP-β-CD
Description: 3) Mouse PK (In Vivo T1/2 and Oral Bioavailability)
In vivo pharmacokinetics (PK) were assessed in fasted male CD-1 mice (age 6-8 weeks) following a single intravenous (IV, 0.5 or 1.0 mg/kg administered at 2.5 ml/kg) or oral (PO, 5 mg/kg administered at 10 ml solution/kg) dose of test article formulated in a 20% (w:vol) HP-β-CD solution or in Pyrogen free water.
Plasma and/or whole blood samples were collected from the dorsal metatarsal vein at desired timepoints via serial capillary microsampling (approx. 0.03 mL) using EDTA as an anticoagulant. Concentrations of compound in the plasma and blood samples were analyzed using a qualified LC-MS/MS method. In silico analysis of main pharmacokinetic parameters was performed using WinNonlin (Phoenix™, version 6.1) or similar software. (Results see Table 4)

[10] = read-out: HTRF-30 min incubation IC50, 30 min incubation
[11] = HTRF-30 min incubation IC50, 30 min incubation

SMILES: CNC(=O)CC[C@@H](C(C)C)N1CC2(CCN(c3ncnnc3Oc3ccc(F)cc3-c3cncnc3C3CC3)C2)C1 (single isomer, unassigned) [Compound 45, (*S)-4-(6-(6-(2-(4-cyclopropylpyrimidin-5-yl)-4-fluorophenoxy)-1,2,4-triazin-5-yl)-2,6-diazaspiro[3.4]octan-2-yl)-N,5-dimethylhexanamide]
IC50 [1, 10]: 0.37 nM | IC50 [2]: 220 nM | IC50 [3]: 1250 nM | IC50 [4]: > 15000 nM | IC50 [5]: 210 nM | Human LM Clint [6]: 43 µL/min/mg | Mouse LM Clint [7]: 110 µL/min/mg | IC50 [8]: 12600 nM

SMILES: CCN(C(=O)c1cc(F)ccc1Oc1nncnc1N1CCC2(C1)CN([C@H](CCCO)C(C)C)C2)C(C)C (single isomer, unassigned) [Compound 47, (*R)—N-ethyl-5-fluoro-2-((5-(2-(6-hydroxy-2-methylhexan-3-yl)-2,6-diazaspiro[3.4]octan-6-yl)-1,2,4-triazin-6-yl)oxy)-N-isopropylbenzamide]
IC50 [1, 10]: 0.31 nM | IC50 [2]: 220 nM | IC50 [3]: 600 nM | IC50 [4]: 10800 nM | IC50 [5]: 140 nM | Human LM Clint [6]: 38 µL/min/mg | Mouse LM Clint [7]: 47 µL/min/mg | IC50 [8]: > 30200 nM

SMILES: CCN(C)C[C@H](O)C[C@H](C(C)C)N1CC2(CCN(c3ncnnc3Oc3ccc(F)cc3C(=O)N(CC)C(C)C)C2)C1.O=C(O)/C=C/C(=O)O (single isomer, unassigned) [Compound 346, N-ethyl-2-((5-(2-((3*R,5R)-6-(ethyl(methyl)amino)-5-hydroxy-2-methylhexan-3-yl)-2,6-diazaspiro[3.4]octan-6-yl)-1,2,4-triazin-6-yl)oxy)-5-fluoro-N-isopropylbenzamide fumarate]
IC50 [1, 11]: 0.058 nM | IC50 ([2]; Homo sapiens, MOLM-14, […]): 36 nM | IC50 ([3]; Homo sapiens, OCI-AML-3, […]): 130 nM | IC50 ([4]; Homo sapiens, […]): > 15000 nM | IC50 ([5]; Homo sapiens, MOLM-14, 48 h): 33 nM | half-life ([9]; single IV 0.5 or 1.0 mg/kg): 5.2 h | bioavailability ([9]; single PO 5 mg/kg): 5.1% | microsomal CLint at 1 μM [6]: 11 µL/min/mg | microsomal CLint at 1 μM [7]: < 7.5 µL/min/mg

SMILES: CC(C)[C@@H](CCCN(C)C)N1CC2(CCN(c3ncnnc3Oc3ccc(F)cc3C(=O)N(C(C)C)C(C)C)C2)C1 (single isomer, unassigned) [Compound 396, (*R)-2-((5-(2-(6-(dimethylamino)-2-methylhexan-3-yl)-2,6-diazaspiro[3.4]octan-6-yl)-1,2,4-triazin-6-yl)oxy)-5-fluoro-N,N-diisopropylbenzamide oxalate]
IC50 [1, 11]: 0.08 nM | IC50 ([2]; Homo sapiens, MOLM-14, […]): 23 nM | IC50 ([3]; Homo sapiens, OCI-AML-3, […]): 140 nM | IC50 ([4]; Homo sapiens, […]): 8510 nM | IC50 ([5]; Homo sapiens, MOLM-14, 48 h): 17 nM | microsomal CLint at 1 μM [6]: 22 µL/min/mg | microsomal CLint at 1 μM [7]: < 7.5 µL/min/mg | IC50 [8]: > 30200 nM

More lines, main results first:

IC50 ([2]; Homo sapiens, MOLM-14, […]): 170 nM | IC50 ([3]; Homo sapiens, OCI-AML-3, […]): 420 nM | IC50 ([5]; Homo sapiens, MOLM-14, 48 h): 92 nM | microsomal CLint at 1 μM [6]: 539 µL/min/mg | microsomal CLint at 1 μM [7]: > 1000 µL/min/mg
SMILES: CCN(C(=O)c1cc(F)ccc1Oc1nnccc1N1CCC2(C1)CN([C@H](CCCN(C)CCOC)C(C)C)C2)C(C)C (single isomer, unassigned) [Compound 83]
IC50 ([4]; Homo sapiens, […]): 6240 nM | IC50 [8]: 6000 nM

IC50 [1, 11]: 0.4 nM | IC50 ([2]; Homo sapiens, MOLM-14, […]): 61 nM | IC50 ([3]; Homo sapiens, OCI-AML-3, […]): 210 nM | IC50 ([5]; Homo sapiens, MOLM-14, 48 h): 77 nM | microsomal CLint at 1 μM [6]: 75 µL/min/mg | microsomal CLint at 1 μM [7]: 44 µL/min/mg
SMILES: CCN(C(=O)c1cc(F)ccc1Oc1nncnc1N1CCC2(C1)CN([C@H](CCCN(C)CCC#N)C(C)C)C2)C(C)C [Compound 13]
IC50 ([4]; Homo sapiens, […]): > 15000 nM | IC50 [8]: 25700 nM
